Counter-ions that a name gives are not always drawn.
Experiment: Dissolution, USP basket apparatus 1, simulated intestinal fluid pH 6.8
Format: physicochemical
Details: for drug release 0.5 h / drug release 1 h / drug release 2 h / drug release 4 h / drug release 8 h / drug release 12 h / drug release 24 h: Table 7, Example VII combination tablet; for drug release 0 h: Table 7, Example VII tablet: 20% silicone PSA, 8.7% tramadol HCl, 71.7% acetaminophen
Description: The release rate of these formulations were carried out using USP dissolution basket apparatus 1 (Vankel, Inc) using about 100 rpm stirring speed at about 37 C in about 900 ml of the dissolution medium. The dissolution medium used was simulated intestinal fluid with a pH of about 6.8. At predetermined time intervals, 1 ml of sample was withdrawn and was analyzed to determine acetaminophen concentration. Concentration of acetaminophen in the dissolution medium was determined using a HPLC method. A C8 column was used using mobile phase of 65% methanol and 35% water. Flow rate was 1 ml/min and the UV detection wavelength was 254 nm. The results are reported as average of six tablets. […] Total weight of each tablet was 500 mg. The diameters of the tablets were 13 mm.

SMILES	drug release 0.5 h	drug release 1 h	drug release 2 h	drug release 4 h	drug release 8 h	drug release 12 h	drug release 24 h	drug release 0 h
CC(=O)Nc1ccc(O)cc1 [APAP, acetaminophen]	13.5	22.6	31.9	44.8	61.1	74.3	86.0	0.0
COc1cccc(C2(O)CCCCC2CN(C)C)c1 (stereo not shown) [Tramadol HCl, Tramadol hydrochloride]	15.8	23.2	32.1	43.4	56.8	68.3	89.4	0.0
